Among the data in patent publication US8946439B2, “Amide compounds, compositions and uses thereof” (Evotec AG, priority 2008, dated 2015) are IC50 values, retold here.

The target of one experiment is T1, hP2X3 (Homo sapiens, UniProt P56373).
T1 construct: expressed in transfected cells; host or cells: e.g. HEK293 or 1321N1
T1 sequence (P56373 1-397): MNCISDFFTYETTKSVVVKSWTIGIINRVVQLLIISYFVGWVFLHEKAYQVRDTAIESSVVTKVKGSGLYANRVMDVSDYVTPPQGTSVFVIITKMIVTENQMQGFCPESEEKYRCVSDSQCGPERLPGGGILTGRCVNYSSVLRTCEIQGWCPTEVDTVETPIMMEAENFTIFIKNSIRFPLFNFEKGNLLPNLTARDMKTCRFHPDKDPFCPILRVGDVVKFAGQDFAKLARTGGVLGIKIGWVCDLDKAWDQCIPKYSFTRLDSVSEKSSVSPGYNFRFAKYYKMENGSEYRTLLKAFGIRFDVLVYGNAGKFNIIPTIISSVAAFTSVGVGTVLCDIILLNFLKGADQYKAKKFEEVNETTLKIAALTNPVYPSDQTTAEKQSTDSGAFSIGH
The experiment is described as follows: Calcium uptake assay (P2X antagonist assay), P2X3 homomer. It counts as cell-based. To be noted: Ca influx (calcium uptake assay), hP2X3; read-out: IC50 hP2X3. In a few lines:
(§1)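 Stably or transiently transfected HEK293 or 1321N1 cells; the heteromer is made by adding P2X3 to a P2X2-stable line, with heteromer function isolated pharmacologically. The peak-minus-baseline FLIPR calcium signal gives % inhibition and a 4-parameter-logistic IC50.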

In a further experiment the target is T2, hP2X2/3H (Homo sapiens, UniProt P56373+Q9UBL9).
T2 construct: expressed in transfected cells; host or cells: e.g. HEK293 or 1321N1
T2 sequence (Q9UBL9 1-471): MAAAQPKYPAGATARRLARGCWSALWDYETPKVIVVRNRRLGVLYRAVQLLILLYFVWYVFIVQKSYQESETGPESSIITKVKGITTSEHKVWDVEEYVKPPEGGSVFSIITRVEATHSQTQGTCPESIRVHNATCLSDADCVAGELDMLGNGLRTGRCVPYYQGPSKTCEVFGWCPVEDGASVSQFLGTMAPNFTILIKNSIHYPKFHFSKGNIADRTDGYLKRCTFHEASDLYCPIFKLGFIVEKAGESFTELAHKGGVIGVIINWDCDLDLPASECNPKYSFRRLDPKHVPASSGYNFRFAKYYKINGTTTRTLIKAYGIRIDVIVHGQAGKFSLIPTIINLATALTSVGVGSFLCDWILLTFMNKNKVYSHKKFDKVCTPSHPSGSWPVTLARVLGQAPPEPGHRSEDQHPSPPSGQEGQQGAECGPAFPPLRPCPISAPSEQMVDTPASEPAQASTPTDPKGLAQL
T2 sequence (P56373 1-397): T1 sequence (P56373 1-397)
The experiment is described as follows: Calcium uptake assay (P2X antagonist assay), P2X2/3 heteromer. It is filed as cell-based. To be noted: Ca influx (calcium uptake assay), hP2X2/3H; read-out: IC50 hP2X2/3H. In short, it runs like this: as §1

Bounds are passed on as bounds.

For `Cc1ccc(-c2cc(C(=O)N[C@H](C)c3ccc(C)nc3)cc(C(O)C(F)(F)F)c2)c(C#N)c1` (stereo partly drawn) [Compound 295, 2′-Cyano-4′-methyl-N—((R)-1-(6-methylpyridin-3-yl)ethyl)-5-(2,2,2-trifluoro-1-hydroxyethyl)biphenyl-3-carboxamide], the IC50 on hP2X3 and on hP2X2/3H was less than 100 nM in each case.

With `Cc1ccc(-c2cc(C(=O)NCc3ccc(C)nc3)cc(C(O)C(F)(F)F)c2)c(C#N)c1` (stereo not shown) [Compound 296], the IC50 at hP2X3 and on hP2X2/3H was less than 100 nM in each case.

As for `Cc1ccc(-c2cc(C(=O)NCc3ccc(C)nc3)cc(C(O)CO)c2)c(C#N)c1` (stereo not shown) [Compound 297, 2′-Cyano-5-(1,2-dihydroxyethyl)-4′-methyl-N-((6-methylpyridin-3-yl)methyl)biphenyl-3-carboxamide], the IC50 at hP2X3 is less than 100 nM; at hP2X2/3H, 100 to 500 nM.

Regarding `Cc1ccc(-c2cc(C(=O)N[C@H](C)c3ccc(C)nc3)cc(C(O)CO)c2)c(C#N)c1` (stereo partly shown) [Compound 298], the IC50 on hP2X3 and at hP2X2/3H was less than 100 nM in each case.

Take `COCC(C)Oc1cc(C(=O)N[C@H](C)c2ccc(C)nc2)cc(-c2ccc(C)cc2)c1` (stereo partly shown) [Compound 299]: the IC50 on hP2X3 and at hP2X2/3H was less than 100 nM throughout.

As to `COCC(C)Oc1cc(C(=O)NCc2ccc(C)nc2)cc(-c2ccc(C)cc2)c1` (stereo not shown) [Compound 300], the IC50 on hP2X3 and at hP2X2/3H was less than 100 nM in each case.

As to `Cc1ccc(-c2cc(OCCO)cc(C(=O)NCc3ccc(C)nc3)c2)cc1` [Compound 301], the IC50 is less than 100 nM on hP2X3 and 100 to 500 nM at hP2X2/3H.

As to `Cc1ccc(-c2cc(OCCO)cc(C(=O)N[C@H](C)c3ccc(C)nc3)c2)cc1` [Compound 302], the IC50 on hP2X3 and at hP2X2/3H was less than 100 nM each time.

Turning to `Cc1ccc(-c2cc(CO)cc(C(=O)N[C@H](C)c3cnc(C)nc3)c2)c(C#N)c1` [Compound 303], the IC50 at hP2X3 is less than 100 nM; at hP2X2/3H, 100 to 500 nM.

`Cc1ccc(-c2cc(CO)cc(C(=O)NCc3cnc(C)nc3)c2)c(C#N)c1` [Compound 304]: the IC50 at hP2X3 was less than 100 nM; on hP2X2/3H, 100 to 500 nM.

Turning to `Cc1ccc(-c2cc(OCCO)cc(C(=O)N[C@H](C)c3ccc(C)nc3)c2)c(C#N)c1` [Compound 305], the IC50 on hP2X3 and at hP2X2/3H was less than 100 nM each time.

With `Cc1ccc(-c2cc(CO)cc(C(=O)NCc3ccc(C)nc3)c2)c(C#N)c1` [Compound 306], the IC50 on hP2X3 was less than 100 nM; on hP2X2/3H, 100 to 500 nM.

For the compound `Cc1ccc(-c2cc(C(=O)NCc3cnc(C)nc3)cc(S(C)(=O)=O)c2)nc1` [Compound 307], the IC50 was less than 100 nM at hP2X3 and greater than 1000 nM at hP2X2/3H.

Regarding `Cc1ccc(-c2cc(OC3CCOC3)cc(C(=O)N[C@H](C)c3ccc(C)nc3)c2)cc1` (stereo partly drawn) [Compound 308, 4′-Methyl-N—((R)-1-(6-methylpyridin-3-yl)ethyl)-5-(tetrahydrofuran-3-yloxy)biphenyl-3-carboxamide], the IC50 on hP2X3 and on hP2X2/3H was less than 100 nM each time.

As for `Cc1ccc(-c2cc(OCC3CCOC3)cc(C(=O)N[C@H](C)c3ccc(C)nc3)c2)cc1` (stereo partly shown) [Compound 309], the IC50 at hP2X3 is 100 to 500 nM; on hP2X2/3H, less than 100 nM.

Consider `Cc1ccc(-c2cc(OCC3CCCO3)cc(C(=O)N[C@H](C)c3ccc(C)nc3)c2)cc1` (stereo partly drawn) [Compound 310, 4′-Methyl-N—((R)-1-(6-methylpyridin-3-yl)ethyl)-5-((tetrahydrofuran-2-yl)methoxy)biphenyl-3-carboxamide], for which the IC50 on hP2X3 and on hP2X2/3H was less than 100 nM in each case.

For `Cc1ccc(-c2cc(C(=O)N[C@H](C)c3ccc(C)nc3)cc(C(C)O)c2)c(C#N)c1` (stereo partly shown) [Compound 311], the IC50 at hP2X3 and on hP2X2/3H was less than 100 nM throughout.

Consider `Cc1ccc(-c2cc(OCC3CCCO3)cc(C(=O)N[C@H](C)c3ccc(C)nc3)c2)c(C#N)c1` (stereo partly shown) [Compound 312], for which the IC50 at hP2X3 and at hP2X2/3H was less than 100 nM each time.

On to `Cc1ccc(-c2cc(OCC3CCOC3)cc(C(=O)N[C@H](C)c3ccc(C)nc3)c2)c(C#N)c1` (stereo partly shown) [Compound 313], for which the IC50 at hP2X3 and at hP2X2/3H was less than 100 nM each time.

As to `Cc1ccc(-c2cc(OC3CCOC3)cc(C(=O)N[C@H](C)c3ccc(C)nc3)c2)c(C#N)c1` (stereo partly shown) [Compound 314], the IC50 on hP2X3 and on hP2X2/3H was less than 100 nM throughout.

In the case of `Cc1ccc(-c2cc(OCC(O)CO)cc(C(=O)N[C@H](C)c3ccc(C)nc3)c2)c(C#N)c1` (stereo partly drawn) [Compound 315, 2′-Cyano-5-(2,3-dihydroxypropoxy)-4′-methyl-N—((R)-1-(6-methylpyridin-3-yl)ethyl)biphenyl-3-carboxamide], the IC50 at hP2X3 is less than 100 nM; at hP2X2/3H it was 100 to 500 nM.

`COCC(C)Oc1cc(C(=O)N[C@H](C)c2ccc(C)nc2)cc(-c2ccc(C)cc2C#N)c1` (stereo partly shown) [Compound 316]: the IC50 at hP2X3 and at hP2X2/3H was less than 100 nM in each case.

Take `Cc1ccc(-c2cc(OCC3COCCO3)cc(C(=O)N[C@H](C)c3ccc(C)nc3)c2)c(C#N)c1` (stereo partly shown) [Compound 317]: the IC50 at hP2X3 and at hP2X2/3H was less than 100 nM throughout.

For `Cc1ccc(-c2cc(OCC(O)CO)cc(C(=O)N[C@H](C)c3ccc(C)nc3)c2)cc1` (stereo partly shown) [Compound 318], the IC50 at hP2X3 and at hP2X2/3H was less than 100 nM throughout.

As to `Cc1ccc(-c2cc(C(=O)N[C@H](C)c3ccc(C)nc3)cc(C(O)CO)c2)nc1` (stereo partly shown) [Compound 319], the IC50 was less than 100 nM at hP2X3 and 100 to 500 nM at hP2X2/3H.

As to `Cc1ccc(-c2cc(CO)cc(C(=O)N[C@H](C)c3ccc(C)nc3)c2)cc1` [Compound 320], the values for the IC50 at hP2X3 and on hP2X2/3H were less than 100 nM and 100 to 500 nM, respectively.

Take `Cc1ccc(-c2cc(C(=O)N[C@H](C)c3ccc(C)nc3)cc(C(C)O)c2)cc1` (stereo partly shown) [Compound 321]: the IC50 at hP2X3 and on hP2X2/3H was less than 100 nM throughout.

Regarding `Cc1ccc(-c2cc(C(=O)N[C@H](C)c3cnc(C)nc3)cc(S(C)(=O)=O)c2)nc1` [Compound 322], the IC50 on hP2X3 is less than 100 nM; at hP2X2/3H it was 100 to 500 nM.

With `COCC(CO)Oc1cc(C(=O)N[C@H](C)c2ccc(C)nc2)cc(-c2ccc(C)cc2)c1` (stereo partly shown) [Compound 323], the IC50 on hP2X3 and at hP2X2/3H was less than 100 nM each time.

`Cc1ccc(-c2cc(OCC3CNCCO3)cc(C(=O)N[C@H](C)c3ccc(C)nc3)c2)c(C#N)c1` (stereo partly drawn) [Compound 324, 2′-Cyano-4′-methyl-N—((R)-1-(6-methylpyridin-3-yl)ethyl)-5-(morpholin-2-ylmethoxy)biphenyl-3-carboxamide]: the IC50 at hP2X3 was less than 100 nM; at hP2X2/3H, 100 to 500 nM.

For the compound `Cc1ccc(-c2cc(OCC3CNCCO3)cc(C(=O)N[C@H](C)c3ccc(C)nc3)c2)cc1` (stereo partly shown) [Compound 325], the values for the IC50 at hP2X3 and on hP2X2/3H were less than 100 nM and 100 to 500 nM, respectively.

Turning to `Cc1ccc(-c2cc(OCC3COCCO3)cc(C(=O)N[C@H](C)c3ccc(C)nc3)c2)cc1` (stereo partly shown) [Compound 326], the IC50 on hP2X3 was less than 100 nM; on hP2X2/3H, 100 to 500 nM.

For the compound `Cc1ccc(-c2cc(OC3CNCC3O)cc(C(=O)N[C@H](C)c3ccc(C)nc3)c2)cc1` (stereo partly shown) [Compound 327], the values for the IC50 at hP2X3 and at hP2X2/3H were less than 100 nM and 100 to 500 nM, respectively.

With `COCC(C)Oc1cc(C(=O)N[C@H](C)c2ccc(C)nc2)cc(-c2ccc(C)cn2)c1` (stereo partly shown) [Compound 328], the IC50 on hP2X3 and at hP2X2/3H was less than 100 nM each time.

Take `Cc1ccc(-c2cc(OCCO)cc(C(=O)N[C@H](C)c3ccc(C)nc3)c2)nc1` [Compound 329]: the IC50 is less than 100 nM on hP2X3 and 100 to 500 nM on hP2X2/3H.

As for `Cc1ccc(-c2cc(C(=O)N[C@H](C)c3ccc(C)nc3)cc(C(O)c3cncn3C)c2)cc1` (stereo partly shown) [Compound 330], the IC50 on hP2X3 and at hP2X2/3H was less than 100 nM throughout.

For `Cc1ccc(-c2cc(C(=O)N[C@H](C)c3ccc(C)nc3)cc(C(C)O)c2)nc1` (stereo partly shown) [Compound 331], the IC50 on hP2X3 and at hP2X2/3H was less than 100 nM throughout.

As to `Cc1ccc(-c2cc(OCC3COCCO3)cc(C(=O)N[C@H](C)c3ccc(C)nc3)c2)nc1` (stereo partly shown) [Compound 332], the IC50 on hP2X3 is less than 100 nM; at hP2X2/3H, 100 to 500 nM.

Take `Cc1ccc(-c2cc(OC3CCOC3)cc(C(=O)N[C@H](C)c3ccc(C)nc3)c2)nc1` (stereo partly shown) [Compound 333]: the IC50 on hP2X3 and at hP2X2/3H was less than 100 nM each time.

With `Cc1ccc(-c2cc(OCC3CCOC3)cc(C(=O)N[C@H](C)c3ccc(C)nc3)c2)nc1` (stereo partly shown) [Compound 334], the IC50 at hP2X3 and on hP2X2/3H was less than 100 nM each time.

On to `Cc1ccc(-c2cc(OCC3CCCO3)cc(C(=O)N[C@H](C)c3ccc(C)nc3)c2)nc1` (stereo partly shown) [Compound 335], for which the IC50 on hP2X3 and at hP2X2/3H was less than 100 nM each time.
